How the values were obtained:
Assay in all cases: Test E pre-/postemergence plant response
Type in all cases: in vivo
Settings in all cases: Postemergence, scale 0 to 100
[1] = system: Italian ryegrass (Lolium multiflorum)
Outline: (§1)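 Pre- and postemergence greenhouse test; compounds formulated in non-phytotoxic solvent with surfactant, postemergence plants 2–18 cm (1- to 4-leaf stage). Visual rating against untreated controls after 14 to 21 days, on a 0 (no effect) to 100 (complete control) scale.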

[2] = system: annual bluegrass (Poa annua)
Outline: as §1

[3] = system: barnyardgrass (Echinochloa crus-galli)
Outline: as §1

[4] = system: bermudagrass (Cynodon dactylon)
Outline: as §1

[5] = system: black mustard (Brassica nigra)
Outline: as §1

[6] = system: broadleaf signalgrass (Brachiaria platyphylla)
Outline: as §1

[7] = system: common mallow (Malva sylvestris)
Outline: as §1

[8] = system: common purslane (Portulaca oleracea)
Outline: as §1

[9] = system: dallisgrass (Paspalum dilatatum)
Outline: as §1

[10] = system: green foxtail (Setaria viridis)
Outline: as §1

[11] = system: guineagrass (Panicum maximum)
Outline: as §1

[12] = system: itchgrass (Rottboellia cochinchinensis)
Outline: as §1

[13] = system: johnsongrass (Sorghum halepense)
Outline: as §1

[14] = system: pitted morningglory (Ipomoea lacunosa)
Outline: as §1

[15] = system: purple nutsedge (Cyperus rotundus)
Outline: as §1

[16] = system: southern (S.) sandbur (Cenchrus echinatus)
Outline: as §1

[17] = system: surinam grass (Brachiaria decumbens)
Outline: as §1

## Cc1cc(-c2ccc(Cl)cc2)nn1-c1c(OC(=O)Oc2ccccc2)cnn(C)c1=O [Compound 54]
[1]; 8 g ai/ha
  Plant response rating, Ryegrass, Italian: 80
[1]; 16 g ai/ha
  Plant response rating, Ryegrass, Italian: 80
[1]; 31 g ai/ha
  Plant response rating, Ryegrass, Italian: 100
[1]; 62 g ai/ha
  Plant response rating, Ryegrass, Italian: 100
[2]; 8 g ai/ha
  Plant response rating, Bluegrass: 0
[2]; 16 g ai/ha
  Plant response rating, Bluegrass: 0
[2]; 31 g ai/ha
  Plant response rating, Bluegrass: 0
[2]; 62 g ai/ha
  Plant response rating, Bluegrass: 0
[3]; 8 g ai/ha
  Plant response rating, Barnyardgrass: 95
[3]; 16 g ai/ha
  Plant response rating, Barnyardgrass: 98
[3]; 31 g ai/ha
  Plant response rating, Barnyardgrass: 100
[3]; 62 g ai/ha
  Plant response rating, Barnyardgrass: 100
[4]; 8 g ai/ha
  Plant response rating, Bermudagrass: 10
[4]; 16 g ai/ha
  Plant response rating, Bermudagrass: 20
[4]; 31 g ai/ha
  Plant response rating, Bermudagrass: 40
[4]; 62 g ai/ha
  Plant response rating, Bermudagrass: 80
[5]; 8 g ai/ha
  Plant response rating, Mustard, Black: 0
[5]; 16 g ai/ha
  Plant response rating, Mustard, Black: 0
[5]; 31 g ai/ha
  Plant response rating, Mustard, Black: 0
[5]; 62 g ai/ha
  Plant response rating, Mustard, Black: 0
[6]; 8 g ai/ha
  Plant response rating, Signalgrass: 75
[6]; 16 g ai/ha
  Plant response rating, Signalgrass: 90
[6]; 31 g ai/ha
  Plant response rating, Signalgrass: 98
[6]; 62 g ai/ha
  Plant response rating, Signalgrass: 100
[7]; 8 g ai/ha
  Plant response rating, Mallow: 0
[7]; 16 g ai/ha
  Plant response rating, Mallow: 0
[7]; 31 g ai/ha
  Plant response rating, Mallow: 0
[7]; 62 g ai/ha
  Plant response rating, Mallow: 0
[8]; 8 g ai/ha
  Plant response rating, Purslane: 0
[8]; 16 g ai/ha
  Plant response rating, Purslane: 0
[8]; 31 g ai/ha
  Plant response rating, Purslane: 0
[8]; 62 g ai/ha
  Plant response rating, Purslane: 0
[9]; 8 g ai/ha
  Plant response rating, Dallisgrass: 20
[9]; 16 g ai/ha
  Plant response rating, Dallisgrass: 30
[9]; 31 g ai/ha
  Plant response rating, Dallisgrass: 40
[9]; 62 g ai/ha
  Plant response rating, Dallisgrass: 80
[10]; 8 g ai/ha
  Plant response rating, Foxtail, Green: 40
[10]; 16 g ai/ha
  Plant response rating, Foxtail, Green: 70
[10]; 31 g ai/ha
  Plant response rating, Foxtail, Green: 80
[10]; 62 g ai/ha
  Plant response rating, Foxtail, Green: 98
[11]; 8 g ai/ha
  Plant response rating, Guineagrass: 95
[11]; 16 g ai/ha
  Plant response rating, Guineagrass: 95
[11]; 31 g ai/ha
  Plant response rating, Guineagrass: 95
[11]; 62 g ai/ha
  Plant response rating, Guineagrass: 100
[12]; 8 g ai/ha
  Plant response rating, Itchgrass: 10
[12]; 16 g ai/ha
  Plant response rating, Itchgrass: 90
[12]; 31 g ai/ha
  Plant response rating, Itchgrass: 95
[12]; 62 g ai/ha
  Plant response rating, Itchgrass: 100
[13]; 8 g ai/ha
  Plant response rating, Johnsongrass: 20
[13]; 16 g ai/ha
  Plant response rating, Johnsongrass: 60
[13]; 31 g ai/ha
  Plant response rating, Johnsongrass: 100
[13]; 62 g ai/ha
  Plant response rating, Johnsongrass: 100
[14]; 8 g ai/ha
  Plant response rating, Morningglory: 0
[14]; 16 g ai/ha
  Plant response rating, Morningglory: 0
[14]; 31 g ai/ha
  Plant response rating, Morningglory: 0
[14]; 62 g ai/ha
  Plant response rating, Morningglory: 0
[15]; 8 g ai/ha
  Plant response rating, Nutsedge, Purple: 0
[15]; 16 g ai/ha
  Plant response rating, Nutsedge, Purple: 0
[15]; 31 g ai/ha
  Plant response rating, Nutsedge, Purple: 0
[15]; 62 g ai/ha
  Plant response rating, Nutsedge, Purple: 0
[16]; 8 g ai/ha
  Plant response rating, Sandbur, S.: 60
[16]; 16 g ai/ha
  Plant response rating, Sandbur, S.: 80
[16]; 31 g ai/ha
  Plant response rating, Sandbur, S.: 90
[16]; 62 g ai/ha
  Plant response rating, Sandbur, S.: 95
[17]; 8 g ai/ha
  Plant response rating, Surinam Grass: 90
[17]; 16 g ai/ha
  Plant response rating, Surinam Grass: 90
[17]; 31 g ai/ha
  Plant response rating, Surinam Grass: 100
[17]; 62 g ai/ha
  Plant response rating, Surinam Grass: 100
